From paper PMC10454396 (International Journal of Molecular Sciences, 2023)

Legend:
[1] = Phase I metabolic stability, mouse liver microsomes; assay type: in vitro ADME; settings: pooled liver microsomes, pH 7.4
Method: (§1) For the evaluation of phase I metabolic stability, the compound (1 µM) was incubated with 0.5 mg/mL pooled mouse/rat liver microsomes (Xenotech, Kansas City, MO, USA) or human liver microsomes (Corning, NY, USA), 2 mM NADPH and 10 mM MgCl2 at pH 7.4 for 120 min at 37 °C. The metabolic stability of testosterone, verapamil and ketoconazole were determined in parallel to confirm the enzymatic activity of mouse/rat liver microsomes; for human liver microsomes testosterone, diclofenac and propranolol were used. The incubation was stopped after defined time points by precipitation of aliquots of the assay mixture with two volumes of ice-cold acetonitrile containing internal standard (15 nM diphenhydramine). Samples were stored on ice until the end of the incubation and precipitated protein was removed by centrifugation (15 min, 4 °C, 4000× g).

[2] = parameters: method as in unpublished data from GBF; settings: ref unpublished data from GBF; cited from earlier work
[3] = Phase I metabolic stability, rat liver microsomes; assay type: in vitro ADME; settings: pooled liver microsomes, pH 7.4
Method: as §1

[4] = tested on: mCherry-expressing S. aureus Newman; experiment: Zebrafish embryo model of S. aureus yolk infection, antibiotic treatment efficacy; assay type: in vivo, Staphylococcus aureus
Method: With the aim to study the in vivo efficacy of drugs, 30 hpf zebrafish embryos were infected with 50 CFU of mCherry-expressing S. aureus Newman. Embryos were then left to recover from injection for two hours and subsequently treated with various reference antibiotics. Antibiotic treatment was performed via bath water immersion as well as via microinjection into the yolk (local treatment) and the caudal vein (systemic treatment) to study whether differences in in vivo activity exist between the three administration routes. Survival was assessed daily until 120 hpf. Additionally, the infection was visualized and quantified by means of fluorescence microscopy at 24 h post treatment (hpt). At the end of every experiment, living embryos (and dead embryos, if possible) were homogenized to determine the remaining bacterial count. Five approved antibiotics from different classes were assessed in vivo. The chosen drugs ought to differ in physicochemical properties, such as molecular weight and polarity, in order to detect a pattern between successful administration routes and the physicochemical properties of the drug. Prior to efficacy assessment, drug-mediated toxicity in zebrafish embryos was investigated using the same administration routes (Figure S3). For microinjection, a fixed dose of 20 to 30 mg/kg was used for each antibiotic. The concentration for bath water immersion was based on the minimum inhibitory concentration (MIC) and the maximum tolerated concentration (MTC) of the drug, whereby it is generally recommended to use 50- to 100-fold the antibacterial MIC to see a positive effect.
Pulled glass capillaries for microinjection (Table S2) were prepared using a micropipette puller (P-1000, Sutter Instrument). Dechorionated and anaesthetized embryos were infected with 50 colony-forming units (CFU) of mCherry-expressing S. aureus Newman by microinjection into the yolk sac at 30 hpf. In order to confirm bacterial numbers, an equal volume of bacterial cells was ejected onto Tryptic Soy Agar (TSA) supplemented with 10 µg/mL chloramphenicol before and after the injection. Antibiotic treatment was performed two hours post infection (hpi) via three different administration routes, namely bath water immersion and microinjection into the yolk sac as well as the caudal vein (CV). The infection procedure and treatment of infected embryos are described in details in the supplementary materials (Table S3).
Embryos were transferred individually to microcentrifuge tubes and washed at least three times with sterile PBS. 200 µL of sterile PBS were added and embryos were mechanically homogenized using a micropestle (Carl Roth, Karlsruhe, Germany). 800 µL of sterile PBS were added to reach a final volume of 1 mL. The homogenates were diluted and plated on tryptic soy agar (TSA). CFU counts were determined after 24 h of incubation at 37 °C.
Embryos were placed in a black 96-well plate (Falcon; Thermo Fisher, Dreieich, Germany) and cryo-anaesthetized by submersion into ice water. Images for quantitative fluorescence analysis were acquired using the following equipment: a fluorescence stereo microscope (M205 FA, Leica Microsystems, Wetzlar, Germany) in combination with a fluorescence illuminator (X-Cite, 200DC, Excelitas Technologies, Waltham, MA, USA) and a microscope camera (DFC7000 T, Leica Microsystems). Quantification of fluorescence was performed using Fiji ImageJ version 2.1.0. Fluorescent Integrated Density (FID) was determined by counting the number of pixels with fluorescence intensity greater than the threshold (10) and multiplying the count with its mean intensity. For confocal imaging, embryos were anaesthetized through immersion in tricaine (945 µM, Sigma-Aldrich) and immobilized in 1.2% low-melting agarose in a flat-bottom 96-well plate. Confocal images and time-lapse series were acquired using the Celldiscoverer 7 with LSM 900 (Zeiss) together with the 5×/0.35 Plan-APOCHROMAT objective.
2. […]

Question: Which results are given for C/C(=C\[C@H](C)CCCCC(=O)O)[C@@H]1O[C@@H]2C=C[C@H]1OC(=O)\C=C/C=C\C=C\[C@H]1O[C@@H]3C[C@H]1O[C@@H](/C=C/C[C@H]1O[C@H](C[C@H](O)[C@H]1C)[C@@H](O)[C@@H](O)/C=C/CC/C=C/C2)[C@@H]3C [sorangicin A]?
Answer: microsomal CLint at 1 µM [1]: 557 ± 297 µL/min/mg; outcome in experimental infection models in rats [2]: successful; microsomal CLint at 1 µM [3]: 239 ± 155 µL/min/mg; effect on survival of infected embryos ([4]; bath water immersion 50-100x MIC): did not show any protective effect; difference between treated and untreated embryos ([4]; bath water supplemented with 1000x MIC): no difference; bacterial fluorescence (FID) at 24 hpt ([4]; caudal vein microinjection): Bacterial fluorescence was suppressed; embryos succumbed to the infection ([4]; caudal vein microinjection 2 hpi, 50 CFU yolk infection): 75%; effect on survival of infected embryos ([4]; caudal vein microinjection 20-30 mg/kg, 2 hpi): significantly extended the lifespan; bacterial numbers ([4]; caudal vein microinjection, succumbed embryos): exceeding 10^4 CFU/embryo; bacteria recovered (CFU plating) at 120 hpf ([4]; yolk microinjection): complete eradication of bacteria; bacterial fluorescence (FID) at 24 hpt ([4]; yolk microinjection): reduced bacterial burden; effect on survival of infected embryos ([4]; yolk microinjection 20-30 mg/kg, 2 hpi): significantly increased the survival rate
